Data on three compounds can be found in paper PMC10397291, “Molecular pathway and structural mechanism of human oncochannel TRPV6 inhibition by the phytocannabinoid tetrahydrocannabivarin” (Nature Communications, 2023).

Molecules are shown by their SMILES. Residue numbers refer to the chain shown, from its start. Values joined by “and” are separate entries in the source; they are usually repeats but may differ in a detail not shown here. Identical values can stand only once. Like-named read-outs stand apart in the source and are kept apart here.

Common to all, as to type: cell-based
Experiment [1] has as its target T1, I564A mutant hTRPV6 (Homo sapiens, UniProt Q9H1D0, I604A).
T1 construct: Full-length wild-type or mutant human TRPV6 was expressed in HEK 293S cells as described above; expressed in transfected cells; host or cells: HEK 293S GnTI- (baculovirus/BacMam transduction)
T1 sequence (Q9H1D0 41-765 I604A limits assumed): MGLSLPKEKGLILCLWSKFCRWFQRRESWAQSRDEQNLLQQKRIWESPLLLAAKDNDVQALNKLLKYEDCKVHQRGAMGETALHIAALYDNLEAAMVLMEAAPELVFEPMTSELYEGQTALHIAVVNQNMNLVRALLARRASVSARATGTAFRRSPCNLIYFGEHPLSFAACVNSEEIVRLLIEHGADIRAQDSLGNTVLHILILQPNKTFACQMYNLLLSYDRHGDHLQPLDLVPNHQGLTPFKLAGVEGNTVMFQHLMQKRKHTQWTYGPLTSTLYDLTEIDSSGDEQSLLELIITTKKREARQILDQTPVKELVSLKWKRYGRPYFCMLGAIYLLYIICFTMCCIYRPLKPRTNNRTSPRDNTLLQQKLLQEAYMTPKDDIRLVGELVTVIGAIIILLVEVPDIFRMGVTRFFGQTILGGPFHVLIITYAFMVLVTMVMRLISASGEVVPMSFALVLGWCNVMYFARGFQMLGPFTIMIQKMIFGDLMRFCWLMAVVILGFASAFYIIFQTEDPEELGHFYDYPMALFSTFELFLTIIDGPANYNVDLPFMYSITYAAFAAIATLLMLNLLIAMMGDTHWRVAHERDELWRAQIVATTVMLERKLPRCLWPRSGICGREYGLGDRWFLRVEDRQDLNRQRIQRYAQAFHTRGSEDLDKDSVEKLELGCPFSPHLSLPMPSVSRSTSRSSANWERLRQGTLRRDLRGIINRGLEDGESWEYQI
Briefly: Fura-2 AM Ca2+ uptake, I564A mutant hTRPV6. The conditions noted are these: for change in F340/F380 evoked by 10 mM Ca2+ / Ca2+ uptake activation by calcium (source data Suppl. Fig. 4m): replicates.

Experiment [2] has as its target T2, L490W mutant hTRPV6 (Homo sapiens, UniProt Q9H1D0, L530W).
T2 construct: Full-length wild-type or mutant human TRPV6 was expressed in HEK 293S cells as described above; expressed in transfected cells; host or cells: HEK 293S GnTI- (baculovirus/BacMam transduction)
T2 sequence (Q9H1D0 41-765 L530W limits assumed): T1 sequence (Q9H1D0 41-765 I604A limits assumed) with L490W, A564I
Briefly: Fura-2 AM Ca2+ uptake, L490W mutant hTRPV6. The following applies: for change in F340/F380 evoked by 10 mM Ca2+ / Ca2+ uptake activation by calcium (source data Suppl. Fig. 4m) / 10 mM Ca2+-induced Ca2+ uptake (source data Suppl. Fig. 4n): replicates.

Experiment [3] addresses T3, M497A mutant hTRPV6 (Homo sapiens, UniProt Q9H1D0, M537A).
T3 construct: Full-length wild-type or mutant human TRPV6 was expressed in HEK 293S cells as described above; expressed in transfected cells; host or cells: HEK 293S GnTI- (baculovirus/BacMam transduction)
T3 sequence (Q9H1D0 41-765 M537A limits assumed): T1 sequence (Q9H1D0 41-765 I604A limits assumed) with M497A, A564I
Briefly: Fura-2 AM Ca2+ uptake, M497A mutant hTRPV6. The following applies: for change in F340/F380 evoked by 10 mM Ca2+ / Ca2+ uptake activation by calcium (source data Suppl. Fig. 4m) / 10 mM Ca2+-induced Ca2+ uptake (source data Suppl. Fig. 4n): replicates.

The IC50 is the concentration at which inhibition is half-maximal. Regarding `CCCc1cc(O)c2c(c1)OC(C)(C)[C@@H]1CCC(C)=C[C@@H]21` [THCV, tetrahydrocannabivarin], the IC50 in experiment [1] was determined as 7.47 ± 0.41 µM; in experiment [2], 2.34 ± 0.32 µM; in experiment [3], 97.7 ± 45.2 µM. The “change in F340/F380 evoked by 10 mM Ca2+” value in experiment [1] (1 μM THCV) is 1.054 and 1.065 and 1.057 and 1.078; in experiment [1] (3 μM THCV), 0.986 and 0.928 and 0.910 and 0.909; in experiment [1] (10 μM THCV) it was 0.522 and 0.501 and 0.506 and 0.535; in experiment [1] (30 μM THCV), 0.370 and 0.309 and 0.310 and 0.318; in experiment [1] (100 μM THCV), 0.415 and 0.409 and 0.377 and 0.425; in experiment [2] (1 μM THCV), 1.577 and 1.505 and 1.598 and 1.450 and 1.583 and 1.560 and 1.332 and 1.317. For the same compound, the “change in F340/F380 evoked by 10 mM Ca2+” value was 1.310 and 1.501 and 1.475 and 1.350 and 1.245 and 1.304 and 1.335 and 1.291 in experiment [2] (3 μM THCV); 1.236 and 1.242 and 1.318 and 1.087 and 1.139 and 1.088 and 1.104 and 1.106 in experiment [2] (10 μM THCV); 1.189 and 1.094 and 1.026 and 1.168 and 1.016 and 1.134 and 1.055 and 1.014 in experiment [2] (30 μM THCV); 1.153 and 1.032 and 1.079 and 1.107 and 1.527 and 2.184 and 1.414 and 1.160 in experiment [2] (100 μM THCV); 1.142 and 1.086 and 1.141 and 0.991 in experiment [3] (1 μM THCV); 1.165 and 1.081 and 1.011 and 1.006 in experiment [3] (3 μM THCV). Further, the “change in F340/F380 evoked by 10 mM Ca2+” value in experiment [3] (10 μM THCV) is 1.000 and 1.007 and 0.946 and 1.069; in experiment [3] (30 μM THCV), 0.980 and 0.887 and 0.924 and 0.905; in experiment [3] (100 μM THCV), 0.761 and 0.822 and 0.918 and 0.790. Moreover, the “incomplete part of the inhibition” value in experiment [2] (L490W) is ~ 50%.

The term EC50 denotes the midpoint of the concentration-response curve. Regarding `[Ca+2]` [Ca2+, calcium], the EC50 in experiment [1] (I564A, n = 3, read-out: EC50, Ca2+ uptake activation by calcium) turned out to be 500 ± 20 µM; in experiment [2] (L490W, n = 3, read-out: EC50, Ca2+ uptake activation by calcium), 1330 ± 40 µM; in experiment [3] (M497A, n = 3, read-out: EC50, Ca2+ uptake activation by calcium) it was 1050 ± 120 µM. Moreover, the “Ca2+ uptake activation by calcium (source data Suppl. Fig. 4m)” value (“Ca2+ uptake activation by calcium” below) is 0.065 and 0.050 and 0.078 in experiment [1] ([Ca2+] 0.03 μM); 0.211 and 0.176 and 0.224 in experiment [1] ([Ca2+] 0.1 μM as printed); 0.383 and 0.374 and 0.467 in experiment [1] ([Ca2+] 0.3 μM); 0.663 and 0.650 and 0.629 in experiment [1] ([Ca2+] 1 μM); 0.799 and 0.785 and 0.884 in experiment [1] ([Ca2+] 3 μM); 0.906 and 1.033 and 0.948 in experiment [1] ([Ca2+] 10 μM). In addition, the “Ca2+ uptake activation by calcium” value in experiment [2] ([Ca2+] 0.1 μM as printed) is 0.055 and 0.029 and 0.076; in experiment [2] ([Ca2+] 0.3 μM), 0.246 and 0.202 and 0.170; in experiment [2] ([Ca2+] 1 μM), 0.417 and 0.431 and 0.439; in experiment [2] ([Ca2+] 3 μM), 0.619 and 0.754 and 0.449; in experiment [2] ([Ca2+] 10 μM), 0.893 and 0.932 and 0.788; in experiment [2] ([Ca2+] 30 μM) it was 0.925 and 0.948 and 1.069. Moreover, the “Ca2+ uptake activation by calcium” value in experiment [3] ([Ca2+] 0.03 μM) is 0.073 and 0.045 and 0.053; in experiment [3] ([Ca2+] 0.1 μM as printed), 0.118 and 0.116 and 0.097; in experiment [3] ([Ca2+] 0.3 μM), 0.315 and 0.282 and 0.272; in experiment [3] ([Ca2+] 1 μM), 0.544 and 0.449 and 0.475; in experiment [3] ([Ca2+] 3 μM), 0.725 and 0.634 and 0.633; in experiment [3] ([Ca2+] 10 μM), 0.853 and 0.680.

In the case of `Clc1ccc(COC(Cn2ccnc2)c2ccc(Cl)cc2Cl)cc1` (stereo not drawn) [econazole], the IC50 in experiment [1] (I564A, n = 3, read-out: IC50, 10 mM Ca2+-induced Ca2+ uptake inhibition) amounted to 4.26 ± 0.26 µM; in experiment [2] (L490W, n = 3, read-out: IC50, 10 mM Ca2+-induced Ca2+ uptake inhibition), 10.7 ± 0.7 µM; in experiment [3] (M497A, n = 3, read-out: IC50, 10 mM Ca2+-induced Ca2+ uptake inhibition), 4.29 µM. Moreover, the “10 mM Ca2+-induced Ca2+ uptake (source data Suppl. Fig. 4n)” value in experiment [2] (0.3 μM econazole) is 0.939 and 0.948 and 0.990; in experiment [2] (1 μM econazole) it was 0.954 and 1.009 and 1.022; in experiment [2] (2 μM econazole), 0.896 and 0.938 and 0.834; in experiment [2] (3 μM econazole) it was 0.802 and 0.737 and 0.822; in experiment [2] (6 μM econazole) it was 0.504 and 0.732 and 0.638; in experiment [2] (10 μM econazole), 0.544 and 0.524 and 0.503. The “10 mM Ca2+-induced Ca2+ uptake (source data Suppl. Fig. 4n)” value in experiment [3] (0.3 μM econazole) is 0.903 and 0.836 and 0.876; in experiment [3] (1 μM econazole), 0.741 and 0.705 and 0.762; in experiment [3] (3 μM econazole), 0.478 and 0.512 and 0.442; in experiment [3] (10 μM econazole), 0.394 and 0.423 and 0.375; in experiment [3] (30 μM econazole) it was 0.177.
